Results: ChEMBL document CHEMBL1201862, “PubChem BioAssay data set” (2004)
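Briefly, cells in 96-well plates were exposed to five compound concentrations for 48 h, and endpoints were estimated by linear interpolation. GI50 is the concentration that inhibits growth by half.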 The source made the active and inactive calls. No stated cut-off is given here; in the data, active = GI50 up to about 1.1 µM and inactive = higher.

Key:
Assay in all cases: growth of human tumour cells (NCI), 48 h
[1] = system: 786-0
[2] = system: A498
[3] = system: A549
[4] = system: ACHN
[5] = system: CAKI-1
[6] = system: CCRF-CEM
[7] = system: COLO 205
[8] = system: DLD-1
[9] = system: DMS-114
[10] = system: DMS-273
[11] = system: EKVX
[12] = system: HCC 2998
[13] = system: HCT-116
[14] = system: HCT-15
[15] = system: HOP-18
[16] = system: HOP-62
[17] = system: HOP-92
[18] = system: IGROV-1
[19] = system: K562
[20] = system: KM-20L2
[21] = system: KM12
[22] = system: LOX IMVI
[23] = system: LXFL 529
[24] = system: M14
[25] = system: M19-MEL
[26] = system: MOLT-4
[27] = system: Malme-3M
[28] = system: NCI-H226
[29] = system: NCI-H460
[30] = system: NCI-H522
[31] = system: OVCAR-3
[32] = system: OVCAR-4
[33] = system: OVCAR-5
[34] = system: OVCAR-8
[35] = system: RXF 393
[36] = system: RXF 631
[37] = system: SF-268
[38] = system: SF-295
[39] = system: SF-539
[40] = system: SK-MEL-28
[41] = system: SK-MEL-2
[42] = system: SK-MEL-5
[43] = system: SK-OV-3
[44] = system: SN12C
[45] = system: SNB-19
[46] = system: SNB-75
[47] = system: SNB-78
[48] = system: SR
[49] = system: SW-620
[50] = system: TK-10
[51] = system: U-251
[52] = system: UACC-257
[53] = system: UACC-62
[54] = system: UO-31
[55] = system: XF498
[56] = system: BT-549
[57] = system: DU-145
[58] = system: HT-29
[59] = system: Hs-578T
[60] = system: MDA-MB-231
[61] = system: MDA-MB-435
[62] = system: MDA-N
[63] = system: NCI-H23
[64] = system: NCI/ADR-RES
[65] = system: PC-3
[66] = system: RPMI-8226
[67] = system: T47D
[68] = system: HL-60

Measured: GI50

COc1ccc2[nH]c3c(c2c1)[C@H](c1ccccc1)C[C@@H]1C(=O)N(c2ccccc2)C(=O)[C@H]31
41.7 µM: [14]
inactive: [1] 17.5 µM | [2] 21.4 µM | [3] 13.3 µM | [4] 22.1 µM | [5] 25.6 µM | [6] 30.9 µM | [7] > 100 µM | [8] 59.7 µM | [9] 29.1 µM | [10] 47.8 µM | [11] 89.1 µM | [12] 35.5 µM | [13] 4.95 µM | [15] 2.54 µM | [16] 22 µM | [17] 37.3 µM | [18] 26.9 µM | [19] 47.9 µM | [20] 64.9 µM | [21] 17.5 µM | [22] 33.2 µM | [23] 43.2 µM | [24] 42.3 µM | [25] > 100 µM | [26] 15.1 µM | [27] 45.5 µM | [28] 19.4 µM | [29] 22.4 µM | [30] 31.3 µM | [31] 23.8 µM | [32] 16.7 µM | [33] > 100 µM | [34] 4.93 µM | [35] 16 µM | [36] 45.1 µM | [37] > 100 µM | [38] 48.4 µM | [39] > 100 µM | [40] > 100 µM | [41] 55.1 µM | [42] 72.9 µM | [43] 23.3 µM | [44] 12.1 µM | [45] 29.2 µM | [46] 20.7 µM | [47] 44.5 µM | [48] 31.6 µM | [49] 20.7 µM | [50] 33.7 µM | [51] 18 µM | [52] > 100 µM | [53] > 100 µM | [54] 22.9 µM | [55] 23 µM

Cc1cc(Cl)cc2c1NC(=O)C2(O)CC(=O)c1ccco1 (stereo not given)
> 100 µM: [14]
inactive: [1] 54.7 µM | [2] 62.7 µM | [3] > 70.6 µM | [4] > 100 µM | [56] > 100 µM | [5] > 100 µM | [6] 38.7 µM | [7] > 100 µM | [8] > 100 µM | [9] > 100 µM | [10] > 100 µM | [57] > 100 µM | [11] > 100 µM | [12] > 100 µM | [13] > 77.3 µM | [15] 4.33 µM | [16] > 100 µM | [17] > 100 µM | [58] > 79.6 µM | [59] 88.9 µM | [18] 99.3 µM | [19] 27.1 µM | [21] > 75.9 µM | [22] > 42 µM | [23] > 100 µM | [24] > 66.2 µM | [25] 15.6 µM | [60] 35.3 µM | [61] 2.92 µM | [62] 10.4 µM | [27] > 48.5 µM | [28] > 100 µM | [63] > 53.7 µM | [29] > 100 µM | [30] > 100 µM | [64] 59.7 µM | [31] 52.4 µM | [32] 12.3 µM | [33] > 100 µM | [34] > 78.3 µM | [65] > 100 µM | [66] 47 µM | [35] 57 µM | [36] > 100 µM | [37] > 100 µM | [38] > 73.3 µM | [39] > 100 µM | [40] > 70 µM | [41] > 85.9 µM | [42] 22.2 µM | [43] > 100 µM | [44] > 85.1 µM | [45] > 100 µM | [46] 55.1 µM | [47] > 100 µM | [49] > 78.2 µM | [67] > 100 µM | [50] > 100 µM | [51] > 90.6 µM | [52] 45.9 µM | [53] 31 µM | [54] > 100 µM | [55] > 100 µM
active: [26] 0.92 µM | [48] 0.506 µM

NC(=O)c1c2c(cc3c(=O)c4ccccc4[nH]c13)CCCC2
inactive: [1] > 69.3 µM | [2] > 100 µM | [3] > 100 µM | [4] > 100 µM | [5] > 100 µM | [6] > 65 µM | [7] > 100 µM | [8] > 73.1 µM | [9] > 100 µM | [10] > 100 µM | [11] > 100 µM | [12] > 100 µM | [13] > 100 µM | [68] > 100 µM | [15] > 100 µM | [16] > 100 µM | [17] > 100 µM | [58] > 100 µM | [18] > 100 µM | [19] > 65.2 µM | [20] > 100 µM | [21] > 100 µM | [22] > 100 µM | [23] > 100 µM | [24] > 100 µM | [25] > 100 µM | [26] > 61.2 µM | [27] > 73.6 µM | [28] > 100 µM | [63] > 93.3 µM | [29] > 100 µM | [30] > 100 µM | [31] > 100 µM | [32] > 100 µM | [33] > 100 µM | [34] > 97.3 µM | [66] > 46.8 µM | [35] > 100 µM | [36] > 100 µM | [37] > 100 µM | [38] > 100 µM | [39] > 100 µM | [40] > 100 µM | [41] > 65.9 µM | [42] > 100 µM | [43] > 100 µM | [44] > 100 µM | [45] > 71.4 µM | [46] 43.1 µM | [48] > 100 µM | [49] > 100 µM | [50] > 100 µM | [51] > 100 µM | [52] > 100 µM | [53] > 100 µM | [54] > 100 µM | [55] > 100 µM
> 100 µM: [14]

CC12CCC[C@@](C)(C(=O)OC3OC(CO)C(O)C(O)C3O)[C@H]1CCC13CC4CC(OC4(CO)[C@H]1O)[C@@H]23 (stereo not given in full)
53.7 µM: [14]
inactive: [1] > 100 µM | [2] > 100 µM | [3] > 100 µM | [4] > 100 µM | [5] > 100 µM | [6] > 100 µM | [8] > 100 µM | [9] 24.9 µM | [10] > 100 µM | [11] > 100 µM | [12] > 100 µM | [13] > 100 µM | [15] > 100 µM | [16] > 100 µM | [17] > 100 µM | [58] > 100 µM | [18] > 100 µM | [19] > 100 µM | [20] > 100 µM | [21] > 100 µM | [23] > 100 µM | [24] > 100 µM | [25] > 100 µM | [26] > 100 µM | [27] > 100 µM | [28] > 100 µM | [63] > 100 µM | [29] > 100 µM | [30] > 100 µM | [31] > 100 µM | [32] > 100 µM | [33] > 100 µM | [34] > 100 µM | [66] > 100 µM | [35] > 100 µM | [36] > 100 µM | [37] > 100 µM | [38] > 100 µM | [39] > 100 µM | [40] > 100 µM | [41] > 100 µM | [42] > 100 µM | [43] > 100 µM | [44] > 100 µM | [45] > 100 µM | [46] > 100 µM | [47] > 100 µM | [48] > 100 µM | [49] 14.5 µM | [50] > 100 µM | [51] > 100 µM | [52] > 100 µM | [53] > 100 µM | [54] > 100 µM | [55] > 100 µM
